# Results from patent US20060205733A1, “Endothelin a receptor antagonists in combination with phosphodiesterase 5 inhibitors and uses thereof” (Encysive Pharmaceuticals, priority 2004, published 2006).
# pKi: −log10 of the molar value.
# Key:
# [1] = in vivo; cited from earlier work
# ETA [2] = biological target: T1, ETA (Homo sapiens, UniProt P25101); conditions: cited from earlier work
# T1 sequence (P25101 21-427): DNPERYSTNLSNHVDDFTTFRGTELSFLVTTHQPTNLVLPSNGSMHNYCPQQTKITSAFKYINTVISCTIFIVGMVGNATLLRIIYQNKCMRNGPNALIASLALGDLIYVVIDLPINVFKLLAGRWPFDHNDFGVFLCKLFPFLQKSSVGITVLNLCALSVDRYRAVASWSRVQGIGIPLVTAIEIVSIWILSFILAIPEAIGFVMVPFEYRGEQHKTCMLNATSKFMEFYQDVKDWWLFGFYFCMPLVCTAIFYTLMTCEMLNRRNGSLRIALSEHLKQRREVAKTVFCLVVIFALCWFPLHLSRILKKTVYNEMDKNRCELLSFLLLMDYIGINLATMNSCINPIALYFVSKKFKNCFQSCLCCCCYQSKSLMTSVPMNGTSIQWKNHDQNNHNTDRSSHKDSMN
# [3] = Pharmacokinetic drug interaction study, sitaxsentan and sildenafil; type: in vivo, human; conditions: single 100 mg sildenafil on day 7 of 100 mg sitaxsentan daily
# Method: A pharmacokinetic drug interaction study was performed using 24 individuals. In the study, a group of 24 normal, healthy volunteers participated in two treatment periods. […] During the other treatment period, the subjects received placebo for seven days and 100 mg of VIAGRA on the seventh day. Twelve subjects were randomly assigned to each treatment period. When the subjects finished one treatment period, they were switched to the other treatment period.
# Samples were drawn (in duplicate) once on days 1, 3, 5 and 6; 15 times on day 7 and once again on day 8 for each treatment period. The samples were stored at a nominal temperature of −20° C. for a duration not exceeding 38 days. All samples were analyzed with a set of calibration standards and low, medium and high concentration Quality Control samples.
# bile salt export pump = bile salt export pump (Homo sapiens, UniProt O95342); conditions: cited from earlier work
# bile salt export pump, sequence (O95342 whole entry): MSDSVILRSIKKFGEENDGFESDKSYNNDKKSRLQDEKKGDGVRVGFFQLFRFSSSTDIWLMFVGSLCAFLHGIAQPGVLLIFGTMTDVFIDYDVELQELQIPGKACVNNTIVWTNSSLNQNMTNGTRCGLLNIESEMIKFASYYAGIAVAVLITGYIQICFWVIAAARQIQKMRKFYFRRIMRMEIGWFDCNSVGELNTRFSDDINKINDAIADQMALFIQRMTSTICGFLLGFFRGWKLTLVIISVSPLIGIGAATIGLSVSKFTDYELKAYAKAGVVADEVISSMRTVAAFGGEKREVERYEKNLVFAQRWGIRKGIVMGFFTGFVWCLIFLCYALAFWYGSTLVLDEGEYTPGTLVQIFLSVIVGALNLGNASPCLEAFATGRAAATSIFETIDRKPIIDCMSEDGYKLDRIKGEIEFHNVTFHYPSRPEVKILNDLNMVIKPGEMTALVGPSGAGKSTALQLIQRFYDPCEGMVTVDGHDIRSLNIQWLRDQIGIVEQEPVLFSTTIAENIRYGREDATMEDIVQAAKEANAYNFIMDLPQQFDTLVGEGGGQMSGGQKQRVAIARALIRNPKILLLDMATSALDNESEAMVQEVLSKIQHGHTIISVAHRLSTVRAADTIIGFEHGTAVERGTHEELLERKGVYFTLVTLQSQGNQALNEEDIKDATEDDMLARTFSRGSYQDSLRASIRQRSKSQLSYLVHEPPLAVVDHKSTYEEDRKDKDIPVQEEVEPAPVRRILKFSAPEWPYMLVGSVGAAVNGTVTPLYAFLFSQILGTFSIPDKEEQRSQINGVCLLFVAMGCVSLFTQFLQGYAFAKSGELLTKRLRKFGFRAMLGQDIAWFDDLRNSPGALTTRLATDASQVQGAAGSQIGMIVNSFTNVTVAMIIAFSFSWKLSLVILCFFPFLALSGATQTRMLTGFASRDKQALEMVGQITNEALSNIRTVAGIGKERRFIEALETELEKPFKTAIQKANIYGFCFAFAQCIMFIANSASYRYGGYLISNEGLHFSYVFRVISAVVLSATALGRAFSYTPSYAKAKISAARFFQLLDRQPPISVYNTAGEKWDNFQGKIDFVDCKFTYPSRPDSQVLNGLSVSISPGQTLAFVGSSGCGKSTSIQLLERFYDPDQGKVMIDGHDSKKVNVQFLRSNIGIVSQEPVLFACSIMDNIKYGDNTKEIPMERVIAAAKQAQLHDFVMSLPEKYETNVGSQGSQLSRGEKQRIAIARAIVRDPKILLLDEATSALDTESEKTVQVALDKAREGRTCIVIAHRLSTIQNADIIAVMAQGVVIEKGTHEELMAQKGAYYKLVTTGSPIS
# ETB = biological target: T2, ETB (Homo sapiens, UniProt P24530); conditions: read-out: Binding K1 (nM) to ETB; cited from earlier work
# T2 sequence (P24530 27-442): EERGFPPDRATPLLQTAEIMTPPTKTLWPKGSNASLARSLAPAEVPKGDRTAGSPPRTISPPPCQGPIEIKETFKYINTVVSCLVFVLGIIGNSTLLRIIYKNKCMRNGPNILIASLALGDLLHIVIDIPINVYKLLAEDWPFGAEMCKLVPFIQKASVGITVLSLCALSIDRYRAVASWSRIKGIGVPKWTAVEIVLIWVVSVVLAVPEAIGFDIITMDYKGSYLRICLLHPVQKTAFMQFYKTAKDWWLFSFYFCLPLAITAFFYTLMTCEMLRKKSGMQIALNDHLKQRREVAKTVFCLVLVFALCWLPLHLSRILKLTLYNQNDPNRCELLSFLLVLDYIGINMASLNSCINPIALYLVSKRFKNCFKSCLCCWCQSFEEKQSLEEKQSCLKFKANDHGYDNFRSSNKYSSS
# ETA [4] = biological target: T1, ETA; conditions: ETA versus ETB, Table 2; cited from earlier work
# cytochrome P450 enzymes = conditions: in vivo; cited from earlier work
# [5] = in vivo; cited from earlier work; remark: listed apart in the source
# [6] = in vivo; cited from earlier work; remark: listed apart in the source
# cytochrome P450 3A4 = biological target: T3, cytochrome P450 3A4 (Homo sapiens, UniProt P08684); experiment: Cytochrome P450 3A4 inhibition in cultured hepatocytes; type: in vitro ADME
# T3 construct: endogenous in cells; host or cells: cultured hepatocytes
# T3 sequence (P08684 whole entry): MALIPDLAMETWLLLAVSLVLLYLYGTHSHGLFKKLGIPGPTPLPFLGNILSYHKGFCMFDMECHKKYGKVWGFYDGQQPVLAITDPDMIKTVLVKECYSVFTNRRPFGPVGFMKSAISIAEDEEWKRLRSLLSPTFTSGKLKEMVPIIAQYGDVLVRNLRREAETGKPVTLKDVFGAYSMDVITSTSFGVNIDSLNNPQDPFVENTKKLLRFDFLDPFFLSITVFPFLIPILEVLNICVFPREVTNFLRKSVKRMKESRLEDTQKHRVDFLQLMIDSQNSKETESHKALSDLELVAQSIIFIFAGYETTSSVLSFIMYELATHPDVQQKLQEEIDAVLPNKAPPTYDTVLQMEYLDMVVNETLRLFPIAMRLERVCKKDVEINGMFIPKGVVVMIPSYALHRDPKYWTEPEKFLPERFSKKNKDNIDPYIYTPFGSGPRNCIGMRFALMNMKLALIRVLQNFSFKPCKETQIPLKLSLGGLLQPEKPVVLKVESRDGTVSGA
smiles,measurement,setting,value
Cc1cc2c(cc1CC(=O)c1sccc1S(=O)(=O)Nc1onc(C)c1Cl)OCO2 [Sitaxsentan],Effect on bilirubin,[1],No effect.
same,Selectivity for ETA:ETB,ETA [2]; Table 4,6500
same,ETA:ETB selectivity ratio,ETA [2]; based upon in vitro receptor affinity ratios,6500
same,pKi,ETA [2]; read-out: Intrinsic potency to ETA (Ki),9.35
same,Effect of sildenafil administration on sitaxsentan levels / pharmacokinetics,[3]; listed as sitaxsentan,did not alter sitaxsentan levels
same,Effect on bile salt,bile salt export pump,Does not accumulate
same,Ki,ETB,> 4300 nM
same,Selectivity,ETA [4],"10,000"
same,Induction of cytochrome P450 enzymes,cytochrome P450 enzymes,No induction
same,Metabolism,[5],Through 3A4 and 2C9
same,t1/2,[5],10 h
Cc1cc2c(cc1CC(=O)c1sccc1S(=O)(=O)Nc1onc(C)c1Cl)OCO2 [THELIN],Selectivity as an antagonist for ETA compared to ETB,ETA [2],"approximately 6,500 fold"
same,Effect of sildenafil administration on sitaxsentan levels / pharmacokinetics,[3],does not appear to impact
same,Side effects,[6],"liver dysfunction (increased ALT and AST), headache, edema, constipation, nasal congestion and flushing"
same,Cytochrome P450 3A4 inhibition,cytochrome P450 3A4,weak
